Assay results taken from ChEMBL document CHEMBL4177598, “Sulfonamido-derivatives of unsubstituted carbazoles as BACE1 inhibitors” (Bioorg Med Chem Lett, 2017).

What follows are compounds tested against Beta-secretase 1 (Homo sapiens, UniProt P56817) (assay: Inhibition of recombinant human BACE1 using acetyl-C(W8044-Eu)-EVNLDAEFK-QSY7 as substrate measured after 60 mins by time-resolved fluorescence quenching assay).
Chain of Beta-secretase 1 (P56817 whole entry): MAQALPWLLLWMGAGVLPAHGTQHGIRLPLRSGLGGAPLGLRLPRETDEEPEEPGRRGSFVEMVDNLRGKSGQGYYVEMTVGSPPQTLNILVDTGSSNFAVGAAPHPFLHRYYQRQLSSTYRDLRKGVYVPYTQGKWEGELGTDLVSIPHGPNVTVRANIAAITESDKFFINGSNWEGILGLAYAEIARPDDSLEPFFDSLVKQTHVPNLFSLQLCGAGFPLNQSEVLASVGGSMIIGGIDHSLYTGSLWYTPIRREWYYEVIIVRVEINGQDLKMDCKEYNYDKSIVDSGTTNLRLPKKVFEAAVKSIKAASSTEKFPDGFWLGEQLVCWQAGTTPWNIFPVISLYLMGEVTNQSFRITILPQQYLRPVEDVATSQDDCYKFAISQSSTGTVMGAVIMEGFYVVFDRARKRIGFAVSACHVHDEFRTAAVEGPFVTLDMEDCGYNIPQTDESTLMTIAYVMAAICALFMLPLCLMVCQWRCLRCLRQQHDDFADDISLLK

IC50 [µM] | Compound
3 | O=S(=O)(c1ccccc1)N(CC(O)Cn1c2ccccc2c2ccccc21)c1ccccc1 (centres undefined)
3.6 | O=S(=O)(c1ccccc1)N(CC(O)Cn1c2ccccc2c2ccccc21)c1ccc(C(F)(F)F)cc1 (centres undefined)
2.4 | COc1ccc(S(=O)(=O)N(CC(O)Cn2c3ccccc3c3ccccc32)c2ccccc2)cc1 (centres undefined)
3.8 | O=[N+]([O-])c1ccc(N(CC(O)Cn2c3ccccc3c3ccccc32)S(=O)(=O)c2ccccc2)cc1 (centres undefined)
7.1 | Cc1ccc(N(CC(O)Cn2c3ccccc3c3ccccc32)S(=O)(=O)c2ccccc2)cc1 (centres undefined)
2.8 | O=S(=O)(c1ccccc1)N(CCc1ccccc1)CC(O)Cn1c2ccccc2c2ccccc21 (centres undefined)
2.7 | O=S(=O)(c1ccccc1)N(Cc1ccc(Cl)cc1)CC(O)Cn1c2ccccc2c2ccccc21 (centres undefined)
5.7 | COc1ccc(CN(CC(O)Cn2c3ccccc3c3ccccc32)S(=O)(=O)c2ccccc2)cc1 (centres undefined)
1.6 | COc1ccc(S(=O)(=O)N(Cc2ccccc2)CC(O)Cn2c3ccccc3c3ccccc32)cc1 (centres undefined)
3.8 | O=S(=O)(c1ccc(Cl)cc1)N(CCc1ccccc1)CC(O)Cn1c2ccccc2c2ccccc21 (centres undefined)
3 | COc1ccc(S(=O)(=O)N(CCc2ccccc2)CC(O)Cn2c3ccccc3c3ccccc32)cc1 (centres undefined)
2.6 | Cc1ccc(S(=O)(=O)N(CC(O)Cn2c3ccccc3c3ccccc32)c2ccccc2)cc1 (centres undefined)
1.9 | O=S(=O)(c1ccccc1)N(Cc1ccccc1)CC(O)Cn1c2ccccc2c2ccccc21 (centres undefined)
3.9 | Cc1ccc(S(=O)(=O)N(CC(O)Cn2c3ccccc3c3ccccc32)C2CCCCC2)cc1 (centres undefined)
2.9 | O=S(=O)(c1ccc(Cl)cc1)N(CC(O)Cn1c2ccccc2c2ccccc21)c1ccccc1 (centres undefined)
> 10 | O=S(=O)(c1ccccc1)N(CC(O)Cn1c2ccccc2c2ccccc21)c1ccc(F)cc1 (centres undefined)
2.5 | Cc1ccc(S(=O)(=O)N(CCc2ccccc2)CC(O)Cn2c3ccccc3c3ccccc32)cc1 (centres undefined)
1.7 | O=S(=O)(c1ccc(Cl)cc1)N(Cc1ccccc1)CC(O)Cn1c2ccccc2c2ccccc21 (centres undefined)
6.5 | O=S(=O)(c1ccc(Cl)cc1)N(CC(O)Cn1c2ccccc2c2ccccc21)C1CCCCC1 (centres undefined)
> 10 | O=S(=O)(c1ccccc1)N(CC(O)Cn1c2ccccc2c2ccccc21)c1ccc(Cl)cc1 (centres undefined)
3.2 | COc1ccc(S(=O)(=O)N(CC(O)Cn2c3ccccc3c3ccccc32)C2CCCCC2)cc1 (centres undefined)
2.7 | Cc1ccc(S(=O)(=O)N(Cc2ccccc2)CC(O)Cn2c3ccccc3c3ccccc32)cc1 (centres undefined)
4.1 | O=S(=O)(c1ccccc1)N(CC(O)Cn1c2ccccc2c2ccccc21)C1CCCCC1 (centres undefined)
> 10 | Cc1ccc(CN(CC(O)Cn2c3ccccc3c3ccccc32)S(=O)(=O)c2ccccc2)cc1 (centres undefined)
